Results as given in paper PMC8264259, “A Novel Ruthenium(II) Complex With Lapachol Induces G2/M Phase Arrest Through Aurora-B Kinase Down-Regulation and ROS-Mediated Apoptosis in Human Prostate Adenocarcinoma Cells” (Frontiers in Oncology, 2021).

How the values were obtained:
DU-145 cells [1] = assay: Cell cycle analysis (PI, flow cytometry); assay type: cell-based, human; conditions: DU-145, 0.25-1.5 μM, 24 h
Method: DNA staining was performed using BD Cycletest™ Plus DNA Kit (BD Biosciences, USA) according to the manufacturer’s instructions. Briefly, DU-145 cells were seeded (5.0 × 10^4 cells/well) into 24-well culture plates and maintained to attach at 37°C in 5% CO2. After 24 h, the culture medium was replaced by complete culture medium containing 0.25, 0.5, 1.0, and 1.5 μM of complex (2). DMSO (0.1% v/v) was used as the vehicle control. Then, after 24 h treatment, the cells were harvested and fixed with 70% ethanol at 4°C for 1 h. Cells were incubated with 0.1 mg/ml RNase and 0.5 mg/ml propidium iodide (PI) for 10 min. Samples were then filtered using 50-µm nylon mesh and the FACSCanto flow cytometer (Becton Dickinson, Franklin Lakes, NJ, USA) was used to analyze the DNA histogram. Data from 10,000 cells were acquired and analyzed using the ModFit software (BD Biosciences, USA). The results were expressed as percentage of cells in each cell cycle phase (G1, S, and G2/M).

DU-145 cells [2] = assay: Cellular ROS/Superoxide detection; assay type: cell-based, human
Method: Total intracellular ROS generation was measured using 2′,7′-dichlorodihydrofluorescein diacetate (H2DCFDA, Sigma-Aldrich), as reported by ([36]). Briefly, DU-145 cells were seeded (1.5 × 10^4 cells/well) into black 96-well plates and maintained to attach at 37°C in 5% CO2. […] After that, cells were labeled with H2DCFDA solution at 5 μM in N,N-dimethylformamide (Sigma-Aldrich). After that, fluorescence intensity was measured in a Synergy H1 Fluorescence Spectrophotometer (BioTek®), at the excitation and emission wavelengths of 495 and 527 nm, respectively. Thereafter, ROS/Superoxide levels were measured using Cellular ROS/Superoxide Detection Assay Kit (Abcam®). Cells were seeded (1.5 × 10^4 cells/well) into black 96-well plates and maintained to attach at 37°C in 5% CO2. After 24 h, cells were treated with complex (2) (0.25, 0.50, 1.0, and 1.5 μM) for 24 h. […] Fluorescence was measured in quadruplicates using a fluorescent microplate reader Synergy H1 (BioTek®) with standard fluorescein (Ex = 488 nm, Em = 520 nm) and rhodamine (Ex = 550 nm, Em = 610 nm) filter sets for ROS and superoxide determination, respectively. […] Cells were labeled as described above, and the ROS levels were measured. […] After 24 h of treatment, the cell viability was determined by Alamar blue® assay as described above.

PNT-2 cells = assay: Comet assay, PNT-2; assay type: cell-based, human
Method: The comet assay was performed to evaluate DNA damage following the method described by ([37]). Briefly, DU-145 and PNT-2 cells were seeded (1.0 × 10^5 cells/well) in 24-well plates and maintained to attach at 37°C in 5% CO2 for 24 h. After, cells were treated with different concentrations of complex (2) for 24 h. DMSO (0.1% v/v) was used as the vehicle control and methyl methanesulfonate (150 μM, Sigma-Aldrich) as DNA damage inducer. Following 24 h of incubation, the cells were collected, and cell viability assay was performed using trypan blue dye. […] Then, cells were mixed with UltraPure™ Low-Melting-Point Agarose (0.5%, Invitrogen®), and added on pre-coated slides with UltraPure™ Agarose (1.5%, Invitrogen®). After agarose solidification, the slides were immersed in a lysis solution (2.5 M NaCl, 100 mM EDTA, 10 mM Tris, 10% DMSO, 1% Triton X-100, pH 10.4) for 18 h at 4°C. […] The nucleoids were identified in a fluorescence microscope (AxioStar Plus, Carl Zeiss Axio Cam MRc-AxioVision 3.1) using a 516 to 560 nm filter, 590 nm filter barrier, in 20× objective with an integrated digital camera. For each treatment, 100 random nucleoids were analyzed, and the tail fluorescence was measured through the Comet Assay IV™ imaging system (Perceptive Instruments^©, Bury St Edmunds, England).

calf thymus DNA (ct-DNA) = assay: DNA minor groove interaction assay with Hoechst 33258; assay type: binding; conditions: Hoechst 2.7 µM, ct-DNA 125 µM, complex 0-125 µM, 37°C
Method: DNA minor groove interaction was assessed by examining the ability of the complexes to displace Hoechst 33258 (Thermo Fischer Scientific) from calf thymus DNA (ct-DNA) (Sigma-Aldrich). The ct-DNA solution was prepared by dilution of 2 mg of the ct-DNA in 1 ml of Tris-HCl buffer (4.5 mM Tris-HCl, 0.5 mM Tris-base, 50 mM NaCl, pH 7.4), and the concentration was determined by absorption spectrophotometric using the molar absorption coefficient 6600 mol^−1 dm^3 cm^−1 at 260 nm ([38]). Thus, the ct-DNA (125 µM) was incubated with Hoechst (2.7 µM), and the extinction of the fluorescence intensity was monitored by the addition of different concentrations (0–125 µM) of both complexes in Tris-HCl containing 10% of DMSO. Fluorescence emission spectra were recorded from […] to 500 nm after excitation wavelength of 343 nm, using an opaque 96-well plate, in a Synergy H1 Fluorescence Spectrophotometer (BioTek®), at 37°C.

For `CC(C)=CCC1=C([O-])C(=O)c2ccccc2C1=O.F[P-](F)(F)(F)(F)F.[Ru+2].c1ccc(P(CP(c2ccccc2)c2ccccc2)c2ccccc2)cc1.c1cnc2c(c1)ccc1cccnc12` [complex (2), [Ru(Lap)(dppm)(phen)]PF6], the cell cycle distribution (DU-145 cells [1]) was “increased cell number at the G2/M phase”, the “total ROS levels” value (DU-145 cells [2]; DU-145, 24 h exposure) was “significantly higher” and the “intracellular ROS with ROS scavenger NAC” value (DU-145 cells [2]; DU-145, cotreatment with 5 mM NAC, 24 h) was “inhibited the formation of intracellular ROS”. For the same compound, the “DNA damage (comet tail intensity)” value (PNT-2 cells; PNT-2, maximum tested concentration 6.0 μM (~IC50), 24 h) was “increase in DNA damage”, the “DNA damage (comet tail intensity)” value (PNT-2 cells; PNT-2 prostate normal cells, same concentrations as DU-145, 24 h) was “no DNA damage” and the “displacement of Hoechst 33258 from ct-DNA (fluorescence)” value (calf thymus DNA (ct-DNA)) was “decrease the fluorescence of the Hoechst-DNA system”.
